According to PubChem BioAssay (NCI):
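Following 48 hours of exposure in 96-well plates, responses at five concentrations were used to interpolate endpoints linearly. The concentration for 50% growth inhibition is given as GI50. TGI marks complete inhibition of growth.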

How the values were obtained:
Test in all cases: growth of human tumour cells (NCI), 48 h
[1] = system: HL-60(TB) leukemia
[2] = system: UACC-62 melanoma
[3] = system: HOP-92 NSCLC
[4] = system: SNB-19 CNS
[5] = system: MOLT-4 leukemia
[6] = system: OVCAR-5 ovarian
[7] = system: SK-MEL-28 melanoma
[8] = system: OVCAR-8 ovarian
[9] = system: UO-31 renal
[10] = system: CAKI-1 renal
[11] = system: SF-539 CNS
[12] = system: IGROV1 ovarian
[13] = system: HCC-2998 colon
[14] = system: U251 CNS
[15] = system: SW-620 colon
[16] = system: MDA-MB-435
[17] = system: UACC-257 melanoma
[18] = system: HOP-62 NSCLC
[19] = system: DU-145 prostate
[20] = system: SNB-75 CNS
[21] = system: RXF 393 renal
[22] = system: BT-549 breast
[23] = system: SF-295 CNS
[24] = system: 786-0 renal
[25] = system: KM12 colon
[26] = system: NCI-H460 lung
[27] = system: T-47D breast
[28] = system: HS 578T breast
[29] = system: HT29 colon
[30] = system: SK-MEL-2 melanoma
[31] = system: NCI/ADR-RES ovarian
[32] = system: HCT-15 colon
[33] = system: SR leukemia
[34] = system: OVCAR-4 ovarian
[35] = system: COLO 205 colon
[36] = system: NCI-H23 lung
[37] = system: M14 melanoma
[38] = system: ACHN renal
[39] = system: CCRF-CEM leukemia
[40] = system: OVCAR-3 ovarian
[41] = system: NCI-H226 lung
[42] = system: EKVX NSCLC
[43] = system: TK-10 renal
[44] = system: MDA-MB-231 breast
[45] = system: LOX IMVI melanoma
[46] = system: PC-3 prostate
[47] = system: A549 NSCLC
[48] = system: SK-OV-3 ovarian
[49] = system: MCF7 breast
[50] = system: RPMI-8226 leukemia
[51] = system: A498 renal
[52] = system: HCT-116 colon
[53] = system: SF-268 CNS
[54] = system: SK-MEL-5 melanoma
[55] = system: NCI-H522 lung
[56] = system: SN12C renal
[57] = system: K-562 leukemia
[58] = system: MALME-3M melanoma

SMILES: COc1ccc(Cn2cc3c(c2)-c2oncc2CC3)cc1OC
- GI50 [1]: 0.126 µM
- TGI [1]: 0.439 µM
- GI50 [2]: 0.273 µM
- TGI [2]: > 50 µM
- GI50 [3]: 1.15 µM
- TGI [3]: 36.3 µM
- GI50 [4]: 0.258 µM
- TGI [4]: > 50 µM
- GI50 [5]: 0.274 µM
- TGI [5]: > 12.2 µM
- GI50 [6]: 0.339 µM
- TGI [6]: > 41.9 µM
- GI50 [7]: 0.326 µM
- TGI [7]: > 50 µM
- GI50 [8]: 0.322 µM
- TGI [8]: > 31.7 µM
- GI50 [9]: 0.272 µM
- TGI [9]: 23.8 µM
- GI50 [10]: 0.193 µM
- TGI [10]: > 31.3 µM
- GI50 [11]: 0.14 µM
- TGI [11]: 0.559 µM
- GI50 [12]: 0.391 µM
- TGI [12]: > 46.3 µM
- GI50 [13]: 0.172 µM
- TGI [13]: 2.54 µM
- GI50 [14]: 0.211 µM
- TGI [14]: > 28.1 µM
- GI50 [15]: 0.153 µM
- TGI [15]: > 50 µM
- GI50 [16]: 0.0774 µM
- TGI [16]: 0.235 µM
- GI50 [17]: 1.69 µM
- TGI [17]: 22.3 µM
- GI50 [18]: 0.259 µM
- TGI [18]: > 50 µM
- GI50 [19]: 0.163 µM
- TGI [19]: 0.544 µM
- GI50 [20]: 0.123 µM
- TGI [20]: 0.761 µM
- GI50 [21]: 0.173 µM
- GI50 [22]: 0.344 µM
- TGI [22]: > 50 µM
- GI50 [23]: 0.15 µM
- TGI [23]: 1.71 µM
- GI50 [24]: 0.536 µM
- TGI [24]: > 21.2 µM
- GI50 [25]: 0.18 µM
- TGI [25]: 1.27 µM
- GI50 [26]: 0.161 µM
- TGI [26]: 0.89 µM
- GI50 [27]: 0.267 µM
- TGI [27]: > 19.3 µM
- GI50 [28]: 0.132 µM
- TGI [28]: 0.447 µM
- GI50 [29]: 0.153 µM
- TGI [29]: 1.28 µM
- GI50 [30]: 0.248 µM
- TGI [30]: 15.1 µM
- GI50 [31]: 0.132 µM
- TGI [31]: 1.38 µM
- GI50 [32]: 0.214 µM
- TGI [32]: > 50 µM
- GI50 [33]: 0.164 µM
- GI50 [34]: 0.643 µM
- TGI [34]: > 50 µM
- GI50 [35]: 0.134 µM
- TGI [35]: 0.346 µM
- GI50 [36]: 0.2 µM
- TGI [36]: > 25.3 µM
- GI50 [37]: 0.154 µM
- TGI [37]: 16 µM
- GI50 [38]: 0.325 µM
- TGI [38]: > 50 µM
- GI50 [39]: 0.132 µM
- GI50 [40]: 0.134 µM
- TGI [40]: 0.35 µM
- GI50 [41]: 0.704 µM
- TGI [41]: > 50 µM
- GI50 [42]: 0.233 µM
- TGI [42]: > 33.7 µM
- GI50 [43]: 0.453 µM
- TGI [43]: > 50 µM
- GI50 [44]: 0.255 µM
- TGI [44]: > 14.3 µM
- GI50 [45]: 0.366 µM
- TGI [45]: > 50 µM
- GI50 [46]: 0.395 µM
- TGI [46]: > 50 µM
- GI50 [47]: 0.283 µM
- TGI [47]: 48.4 µM
- GI50 [48]: 0.152 µM
- TGI [48]: 1.14 µM
- GI50 [49]: 0.191 µM
- TGI [49]: > 41 µM
- GI50 [50]: 0.19 µM
- GI50 [51]: 0.102 µM
- TGI [51]: 0.678 µM
- GI50 [52]: 0.193 µM
- TGI [52]: 8.57 µM
- GI50 [53]: 0.43 µM
- TGI [53]: > 50 µM
- GI50 [54]: 0.229 µM
- TGI [54]: 1.7 µM
- GI50 [55]: 0.146 µM
- TGI [55]: 0.677 µM
- GI50 [56]: 0.331 µM
- TGI [56]: > 50 µM
- GI50 [57]: 0.163 µM
- TGI [57]: > 16.6 µM

SMILES: CCOc1ccc2c(c1)CN(Cc1ccc(Cl)cc1)CO2
- GI50 [1]: 19.2 µM
- TGI [1]: 42.8 µM
- GI50 [2]: 16.1 µM
- TGI [2]: 31.2 µM
- GI50 [3]: 8.63 µM
- TGI [3]: 36.8 µM
- GI50 [4]: 24.6 µM
- TGI [4]: > 100 µM
- GI50 [5]: 19.3 µM
- TGI [5]: 67.5 µM
- GI50 [6]: 17.9 µM
- TGI [6]: 46.2 µM
- GI50 [7]: 14.4 µM
- TGI [7]: 28.4 µM
- GI50 [8]: 18 µM
- TGI [8]: 38.3 µM
- GI50 [9]: 8.82 µM
- TGI [9]: 43.8 µM
- GI50 [10]: 16.3 µM
- TGI [10]: 43.2 µM
- GI50 [11]: 15.8 µM
- TGI [11]: 32.4 µM
- GI50 [12]: 23 µM
- TGI [12]: 63.7 µM
- GI50 [13]: 18.7 µM
- TGI [13]: 35 µM
- GI50 [14]: 16.1 µM
- TGI [14]: 33.2 µM
- GI50 [15]: 16.4 µM
- TGI [15]: 32.1 µM
- GI50 [16]: 15.2 µM
- TGI [16]: 29.5 µM
- GI50 [17]: 16 µM
- TGI [17]: 35.8 µM
- GI50 [18]: 26.2 µM
- TGI [18]: > 100 µM
- GI50 [19]: 22.8 µM
- TGI [19]: 53.2 µM
- GI50 [20]: 15 µM
- TGI [20]: 45.8 µM
- GI50 [21]: 13.8 µM
- TGI [21]: 29.3 µM
- GI50 [22]: 17.6 µM
- TGI [22]: 36.8 µM
- GI50 [23]: 13 µM
- TGI [23]: 27.9 µM
- GI50 [24]: 14.8 µM
- TGI [24]: 30.1 µM
- GI50 [58]: 14.8 µM
- TGI [58]: 29.5 µM
- GI50 [25]: 18.3 µM
- TGI [25]: 35.5 µM
- GI50 [26]: 16 µM
- TGI [26]: 32.4 µM
- GI50 [27]: 17.8 µM
- TGI [27]: 52.7 µM
- GI50 [28]: 18.2 µM
- TGI [28]: 53.7 µM
- GI50 [29]: 20.3 µM
- TGI [29]: 40.4 µM
- GI50 [30]: 18 µM
- TGI [30]: 34 µM
- GI50 [31]: 19.4 µM
- TGI [31]: 48.9 µM
- GI50 [32]: 16.5 µM
- TGI [32]: 34.1 µM
- GI50 [33]: 15.6 µM
- TGI [33]: 63.7 µM
- GI50 [34]: 19.8 µM
- TGI [34]: 50.3 µM
- GI50 [35]: 19 µM
- TGI [35]: 36.1 µM
- GI50 [36]: 25.8 µM
- TGI [36]: 94.5 µM
- GI50 [38]: 19.3 µM
- TGI [38]: 55 µM
- GI50 [39]: 29.9 µM
- TGI [39]: 98.5 µM
- GI50 [40]: 21.6 µM
- TGI [40]: 51.1 µM
- GI50 [41]: 30.3 µM
- TGI [41]: > 100 µM
- GI50 [43]: 19 µM
- TGI [43]: 64.8 µM
- GI50 [44]: 12.9 µM
- TGI [44]: 34.6 µM
- GI50 [45]: 17.2 µM
- TGI [45]: 33.4 µM
- GI50 [46]: 27.9 µM
- TGI [46]: > 100 µM
- GI50 [47]: 35.1 µM
- TGI [47]: > 100 µM
- GI50 [48]: 29.8 µM
- TGI [48]: > 100 µM
- GI50 [49]: 16.4 µM
- TGI [49]: 35.2 µM
- GI50 [50]: 19.9 µM
- TGI [50]: 46.4 µM
- GI50 [51]: 2.09 µM
- TGI [51]: 19.2 µM
- GI50 [52]: 14.8 µM
- TGI [52]: 29 µM
- GI50 [53]: 28.1 µM
- TGI [53]: > 100 µM
- GI50 [54]: 15.2 µM
- TGI [54]: 28.9 µM
- GI50 [55]: 15.9 µM
- TGI [55]: 34 µM
- GI50 [56]: 25.9 µM
- TGI [56]: > 100 µM
- GI50 [57]: 17 µM
- TGI [57]: 57 µM
